Measured values reported in US20240174618A1, “SUBSTITUTED (2-HETEROARYLOXYPHENYL)SULFONATES, SALTS THEREOF AND THEIR USE AS HERBICIDAL AGENTS” (Bayer Aktiengesellschaft, priority 2021, published 2024).

What was measured:
Type in all cases: in vivo
[1] = test system: Abutilon theophrasti (ABUTH); test: A. Herbicidal pre-emergence efficacy, ABUTH; conditions: scored visually after about 3 weeks vs untreated controls
In short: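 Pre-emergence soil-surface spray in sandy loam pots, WP/EC in water plus 0.5% additive, 600 L/ha. Visual % damage rating after about 3 weeks in greenhouse vs. untreated; 0% = control-like, 100% = dead plants. Rates up to 1280 g/ha.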

[2] = test system: Alopecurus myosuroides (ALOMY); test: A. Herbicidal pre-emergence efficacy, ALOMY; conditions: scored visually after about 3 weeks vs untreated controls
Text: Seeds of mono- and dicotyledonous weed plants were placed in plastic pots in sandy loam soil (doubly sown with one species each of mono- or dicotyledonous weed plants per pot) and covered with soil. The compounds of the invention, formulated in the form of wettable powders (WP) or as emulsion concentrates (EC), were then applied onto the surface of the covering soil as aqueous suspension or emulsion with addition of 0.5% additive at a water application rate of 600 liters per hectare (converted). After the treatment, the pots were placed in a greenhouse and kept under good growth conditions for the test plants. After about 3 weeks, the efficacy of the preparations was scored visually in comparison with untreated controls as percentages.
For example, • 100% efficacy=plants have died, • 0% efficacy=like untreated control plants.
Tables A1a to A12c below show the effects of selected compounds of the general formula (I) according to table 1 on various harmful plants at an application rate corresponding to 1280 g/ha or less, which were obtained by the experimental procedure mentioned above.

[3] = test system: Alopecurus myosuroides (ALOMY); test: B. Herbicidal post-emergence efficacy, ALOMY; conditions: 1280 g/ha, rated visually after about 3 weeks
Procedure: (§1) Seeds of mono- and dicotyledonous weed plants were placed in plastic pots in sandy loam soil (doubly sown with in each case one species of mono- or dicotyledonous weed plants per pot), covered with soil and cultivated in a greenhouse under controlled growth conditions. 2 to 3 weeks after sowing, the test plants were treated at the one-leaf stage. The compounds of the invention, formulated in the form of wettable powders (WP) or as emulsion concentrates (EC), were applied onto the green parts of the plants as aqueous suspension or emulsion with addition of 0.5% additive at a water application rate of 600 liters per hectare (converted). After the test plants had been kept in the greenhouse under optimum growth conditions for about 3 weeks, the activity of the preparations was rated visually in comparison to untreated controls.
(§2) For example, • 100% efficacy=plants have died, • 0% efficacy=like untreated control plants
(§3) Tables B1a to B12c below show the effects of selected inventive compounds of the general formula (I) according to table 1 on various harmful plants at an application rate corresponding to 1280 g/ha or less, which were obtained by the experimental procedure mentioned above.

Zea mays (ZEAMX) [4] = test: D. Pre-emergence effect on useful plants, ZEAMX; conditions: useful plant
In short: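 Seeds sown in pots and covered with soil; WP or EC formulations sprayed on the soil surface as aqueous suspension/emulsion with 0.5% additive at 600 l/ha water. Plants grown in greenhouse; crop damage scored visually after about 3 weeks as % versus untreated controls (100% = dead, 0% = like control).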

[5] = test system: Digitaria sanguinalis (DIGSA); test: E. Herbicidal post-emergence efficacy, DIGSA
Procedure: Seeds of monocotyledonous and dicotyledonous weeds and crop plants were placed in sandy loam in plastic or organic planting pots, covered with soil and cultivated in a greenhouse under controlled growth conditions. 2 to 3 weeks after sowing, the test plants were treated at the one-leaf stage. The compounds of the invention, formulated in the form of wettable powders (WP) or as emulsion concentrates (EC), were then sprayed onto the green parts of the plants as aqueous suspension or emulsion with addition of 0.5% additive at a water application rate of 600 l/ha (converted). After the test plants had been kept in the greenhouse under optimum growth conditions for about 3 weeks, the activity of the preparations was rated visually in comparison to untreated controls.
For example, • 100% efficacy=plants have died, • 0% action=like untreated control plants.
Tables E1a to E12b below show the effects of selected compounds of the general formula (I) according to table 1 on various harmful plants at an application rate corresponding to 320 g/ha or less, which were obtained by the experimental procedure mentioned above.

Zea mays (ZEAMX) [6] = test: F. Post-emergence effect on useful plants, ZEAMX; conditions: useful plant
In short: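 Crop plants grown in sandy loam in the greenhouse were sprayed at the one-leaf stage, 2-3 weeks after sowing, with WP or EC formulations plus 0.5% additive at 600 l/ha water. Damage was scored visually after about 3 weeks against untreated controls (0% = like control, 100% = dead).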

Lolium rigidum (LOLRI) = test: B. Herbicidal post-emergence efficacy, LOLRI; conditions: 1280 g/ha
Procedure: as §1, §2, §3

[7] = test system: Matricaria inodora (MATIN); test: C. Herbicidal pre-emergence efficacy, MATIN; conditions: scored after about 3 weeks
Text: (§4) Seeds of monocotyledonous and dicotyledonous weed plants and crop plants were placed in plastic or organic planting pots and covered with soil. The compounds of the invention, formulated in the form of wettable powders (WP) or as emulsion concentrates (EC), were then applied to the surface of the covering soil as aqueous suspension or emulsion with addition of 0.5% additive at a water application rate equivalent to 600 l/ha (converted). After the treatment, the pots were placed in a greenhouse and kept under good growth conditions for the test plants. After about 3 weeks, the efficacy of the preparations was scored visually in comparison with untreated controls as percentages. For example, • 100% efficacy=plants have died, • 0% efficacy=like untreated control plants.
(§5) Tables C1a to C14b below show the effects of selected compounds of the general formula (I) according to table 1 on various harmful plants at an application rate corresponding to 320 g/ha or less, which were obtained by the experimental procedure mentioned above.

[8] = test system: Pharbitis purpurea (PHBPU); test: C. Herbicidal pre-emergence efficacy, PHBPU; conditions: 320 g/ha, scored after about 3 weeks
Text: as §4, §5

Row | Compound | Pre-emergence efficacy against ABUTH ([1]; 80 g/ha) | Pre-emergence efficacy against ABUTH ([1]; 320 g/ha) | Pre-emergence efficacy against ABUTH ([1]; 1280 g/ha) | Pre-emergence efficacy against ALOMY ([2]; 1280 g/ha) | Pre-emergence efficacy against ZEAMX in % (Zea mays (ZEAMX) [4]; application rate 80 g/ha) | Post-emergence efficacy against DIGSA in % ([5]; application rate 320 g/ha) | Post-emergence efficacy against ZEAMX in % (Zea mays (ZEAMX) [6]; application rate 80 g/ha) | further results
1 | Cc1cccc(Oc2ncc(Cl)cn2)c1OS(=O)(=O)CCCC(F)(F)F [Example I-28, 2-[(5-Chloropyrimidin-2-yl)oxy]-6-methylphenyl 4,4,4-trifluorobutane-1-sulfonate] | 100% | 100% | 100% | 100% |  |  |  | 
2 | O=S(=O)(CCC1CC1)Oc1c(F)cccc1Oc1ncc(Cl)cn1 [Example I-55] |  |  | 100% |  | 10% | 90% |  | Post-emergence efficacy against ALOMY in % [3]: 90%
3 | Cc1cccc(Oc2ncc(F)cn2)c1OS(=O)(=O)CCC(F)(F)F [Example I-45] | 100% | 100% | 100% | 100% | 0% |  |  | Post-emergence efficacy against ALOMY in % [3]: 90%; Pre-emergence efficacy against ZEAMX in % (Zea mays (ZEAMX) [4]; application rate 320 g/ha): 20%; Pre-emergence efficacy against ALOMY ([2]; 320 g/ha): 90%
4 | O=S(=O)(CCCCl)Oc1cccc(F)c1Oc1ncc(Cl)cn1 [Example I-13] |  | 90% | 100% |  | 10% |  | 20% | Pre-emergence efficacy against ZEAMX in % (Zea mays (ZEAMX) [4]; application rate 320 g/ha): 20%; Post-emergence efficacy against ZEAMX in % (Zea mays (ZEAMX) [6]; application rate 320 g/ha): 20%
5 | CC(C)CCS(=O)(=O)Oc1ccccc1Oc1ncc(Cl)cn1 [Example I-25] |  |  | 100% |  | 0% |  |  | Post-emergence efficacy against LOLRI (Lolium rigidum (LOLRI)): 90%
6 | O=S(=O)(CCC(F)(F)F)Oc1c(Br)cccc1Oc1ncc(F)cn1 [Example I-43] |  | 100% | 100% | 90% | 0% |  | 0% | Pre-emergence efficacy against MATIN ([7]; 320 g/ha): 80%; Post-emergence efficacy against ZEAMX in % (Zea mays (ZEAMX) [6]; application rate 320 g/ha): 0%
7 | O=S(=O)(CCCC(F)(F)F)Oc1c(Br)cccc1Oc1ncc(Cl)cn1 [Example I-30] |  | 90% | 100% |  |  |  |  | 
8 | O=S(=O)(CC1CC1(Cl)Cl)Oc1c(F)cccc1Oc1ncc(Cl)cn1 (centres unmarked) [Example I-57] |  | 90% | 100% | 100% |  |  |  | 
9 | C=CCCS(=O)(=O)Oc1c(F)cccc1Oc1ncc(Cl)cn1 [Example I-50] | 90% | 100% | 100% |  | 0% |  |  | 
10 | O=S(=O)(CCCC(F)(F)C(F)(F)F)Oc1c(F)cccc1Oc1ncc(Cl)cn1 [Example I-68] |  |  | 100% | 90% | 10% | 90% |  | Pre-emergence efficacy against MATIN ([7]; 80 g/ha): 90%; Pre-emergence efficacy against MATIN ([7]; 320 g/ha): 100%
11 | Cc1cccc(Oc2ncc(Cl)cn2)c1OS(=O)(=O)CCC(F)(F)F [Example I-29] | 90% | 100% | 100% | 90% |  |  |  | Post-emergence efficacy against LOLRI (Lolium rigidum (LOLRI)): 90%
12 | CCCS(=O)(=O)Oc1ccccc1Oc1ncc(Cl)cn1 [Example I-3] | 100% | 100% | 100% | 100% |  |  | 10% | Pre-emergence efficacy against MATIN ([7]; 320 g/ha): 90%; Post-emergence efficacy against ALOMY in % [3]: 90%; Pre-emergence efficacy against PHBPU [8]: 80%; Pre-emergence efficacy against ALOMY ([2]; 320 g/ha): 90%
13 | O=S(=O)(CCCC(F)(F)F)Oc1c(Cl)cccc1Oc1ncc(Br)cn1 [Example I-34] |  |  | 90% |  |  | 90% |  | 
14 | O=S(=O)(CCl)Oc1ccccc1Oc1ncc(Cl)cn1 [Example I-9] |  |  | 90% |  | 0% | 80% | 20% | Pre-emergence efficacy against MATIN ([7]; 320 g/ha): 80%; Pre-emergence efficacy against ZEAMX in % (Zea mays (ZEAMX) [4]; application rate 320 g/ha): 20%; Post-emergence efficacy against ZEAMX in % (Zea mays (ZEAMX) [6]; application rate 320 g/ha): 20%
15 | N#Cc1cccc(Oc2ncc(Cl)cn2)c1OS(=O)(=O)CCCC(F)(F)F [Example I-81] |  |  |  |  | 0% | 90% |  | Pre-emergence efficacy against PHBPU [8]: 100%; Post-emergence efficacy against DIGSA in % ([5]; application rate 80 g/ha): 80%
16 | C=CCS(=O)(=O)Oc1ccccc1Oc1ncc(Cl)cn1 [Example I-36] |  | 100% | 100% |  | 0% |  | 0% | Post-emergence efficacy against ZEAMX in % (Zea mays (ZEAMX) [6]; application rate 320 g/ha): 0%
17 | O=S(=O)(CCC(F)=C(F)F)Oc1c(F)cccc1Oc1ncc(Cl)cn1 [Example I-70] |  |  |  |  |  | 90% | 20% | 
18 | Cc1cccc(Oc2ncc(F)cn2)c1OS(=O)(=O)CCCC(F)(F)F [Example I-46] | 90% | 100% | 100% | 100% | 0% |  |  | Post-emergence efficacy against ALOMY in % [3]: 90%
19 | O=S(=O)(CCCC(F)(F)F)Oc1c(Cl)cccc1Oc1ncc(Cl)cn1 [Example I-39] | 90% | 100% | 100% | 100% | 0% | 100% | 20% | Pre-emergence efficacy against MATIN ([7]; 320 g/ha): 80%; Pre-emergence efficacy against PHBPU [8]: 90%; Pre-emergence efficacy against ALOMY ([2]; 320 g/ha): 90%; Post-emergence efficacy against DIGSA in % ([5]; application rate 80 g/ha): 90%
